“Also recorded” adds a separate entry of the source. Where two headings read alike, the source gives them in different places.
How the values were obtained:
[1] = target: T1, rP2Y1R (Rattus norvegicus, UniProt P49651); conditions: HEK293 cells expressing rP2Y1R, Ca2+ mobilization; cited from earlier work
T1 construct: host or cells: HEK293 cells

[2] = target: T2, calf intestine alkaline phosphatase (Bos taurus, UniProt P19111); experiment: Enzymatic stability to alkaline phosphatase; format: in vitro ADME; conditions: 37° C., as in Example 6
T2 construct: purchased Fermentas Inc., Glen Burnie, Md
Protocol: Enzyme activity was measured by the release of p-nitrophenol from the nucleotide derivatives using a UV-vis spectrophotometer at 405 nm. Relative activity and resistance of nucleotides to enzymatic hydrolysis were determined at 37° C. Briefly, 32.5 μl of nucleotide derivative (77 μg/ml in 0.1 M Tris-HCl and 0.1 M MgCl2, pH 7.5) and 6 μl of deionized water were incubated with calf intestine alkaline phosphatase (Fermentas Inc., Glen Burnie, Md., 1 unit/μl, 6.25 μl at 37° C. final pH=9.8). After 30 min, the reaction was stopped by incubation at 80° C. for 30 min. The stability of the nucleotide derivative was evaluated by HPLC to monitor possible dephosphorylation products. The mixture was separated on a Gemini analytic column (5u C-18 110A, 150×4.60 mm) using gradient elution with Solvent System I (see Example 1) at 90:10 to 70:30 A:B for 3A and 3B, and 82:18 to 50:50 for 4A, 4B and 2 over 20 min and at a flow rate of 1 ml/min.

[3] = Glucose challenge in cannulated Wistar rats (insulin secretagogue efficacy); format: in vivo, rat; conditions: starved Wistar rats
Excerpt: The objective of this experiment is to study in vivo the efficacy of the compounds of the present invention as insulin secretion enhancing molecules, following a single oral gavage (per os) administration of glucose to cannulated Wister rats, by measuring the blood glucose and insulin levels following administration of the tested compound to the cannulated rats intra venues through the cannule.
A total of about 40 healthy 10-13 week old Wister rats are used. Animals are acclimatized for at least 4 days prior to commencement of treatment and are fed with non-medicated commercial sterile rodent food ad libitum. Drinking tap water are available ad libitum.
About 48 hours prior treatment, rats are weighted and a population uniform in weight (about 90% of the animals) is taken for cannulation. In particular, animals are anesthetized by 2.5% isofluran 97.5% dry air inhalation, and a P52 cannula is surgically inserted and fixed in the jugular vein and flushed with 0.3-0.5 ml 5% heparinized saline after cannulation (and thereafter, immediately after each blood collection). In case a technical problem such as fixation or clotting arises with a rat's indwelling cannula, another rat is cannulated and replace the previously allocated rat in the study.
On the day of treatment, the cannule of each one of the rats is checked, the rats are weighed, and the glucose level of each one of the rats is checked via the tail vain. […]
Glucose and insulin levels are measured 30 minutes prior to glucose administration (and prior to glibenclamide administration in the case of the positive control group); immediately before and 5 minutes after glucose administration; 15 minutes after glucose administration, namely, 5 minutes after administration of the tested compound or saline (in the cases of the first and the negative control groups, respectively); and then 30, 45, 60 120 and 150 minutes after glucose administration. […]

[4] = target: T3, turkey P2Y1 (Meleagris gallopavo, UniProt P49652); experiment: Intracellular calcium measurement ([Ca2+]i, fura-2) in 1321N1 astrocytoma cells; format: cell-based
T3 construct: expressed in transfected cells
Protocol: Human 1321N1 astrocytoma cells stably expressing the turkey P2Y1, human P2Y2, human P2Y4 or rat P2Y6 were grown in Dulbecco's modified Eagle's medium containing 5% (v/v) fetal bovine serum, 100 units/ml penicillin, 100 μg/ml streptomycin and 500 μg/ml Geneticin (G-418, Life Technologies, Inc). Changes in the intracellular free calcium concentration, [Ca^2+]i were detected by dual-excitation spectrofluorometric analysis of cell suspensions loaded with fura-2, as previously described (Garrad et al., 1998; Grynkiewicz et al., 1985). Cells were assayed in 10 mM Hepes-buffered saline (pH 7.4) containing 1 mM CaCl2 and 1 mM MgCl2. The cells were pelleted in a microfuge and resuspended in 2 ml of buffer. Concentration-response data were analyzed with the Prism curve fitting program (GraphPAD Software, San Diego, Calif.). Three experiments were conducted on separate days for each P2Y receptor subtype.
The activities of compounds 2, 4B, 17, 18, 19A, 21 (isomers A and B) were examined at the G protein-coupled P2YRs, P2Y1, P2Y2, P2Y4 and P2Y6 expressed in human 1321N1 astrocytoma cells, based on intracellular calcium measurements, as described in Experimental above. In particular, the activity of compound 2, 4B and 19 was examined at P2Y1R, P2Y2R, P2Y4R and P2Y6R, and the activity of compounds 17, 18 and 21 was examined at P2Y1R only. The experiments were conducted by Prof. Gary A. Weisman from Columbia-Missouri University, Columbia, Mo., USA.

[5] = Stability in human blood serum, Method A; format: in vitro ADME; conditions: human blood serum and RPMI-1640, 37° C.
Protocol: Preparation of the Human Blood Serum: Blood Taken from Healthy Volunteers was obtained from a blood bank (Tel-Hashomer hospital, Israel), stored for 12 h at 4° C. and centrifuged in plastic tubes at 1500 g for 15 min at room temperature. The serum was separated and stored at −80° C.
The assay mixture, containing a 40 mM nucleotide derivative solution in deionized water (4.5 μl), human blood serum (180 μl) and RPMI-1640 (540 μl), was incubated at 37° C. for 1, 4, 8, 16, 24, 48, 72 and 96 h. The samples were then treated with 0.6 M of hydrochloric acid (430 μl), centrifuged for 2 min (13,000 g, 4° C.), neutralized by addition of 4 M of KOH, centrifuged for 2 min (13,000 g, 4° C.) and freeze-dried. The stability of the nucleotide was evaluated by HPLC for monitoring possible dephosphorylation products. The mixture was separated on a Gemini analytic column (5u C-18 110A, 150×4.60 mm) with gradient elution [0.01 M KH2PO4 pH=4.5 (A)/acetonitrile (B), 100:0→60:40, A:B, 20 min for 2, 3A and 3B; 100:0→95:5, A:B, 10 min for ATP] and flow rate of 1 ml/min. The hydrolysis rate was determined by measuring the change in the integration of the respective HPLC peaks with time.

[6] = Chemical stability at pH 1.4 and 37° C. evaluated by HPLC; format: physicochemical; conditions: pH 1.4, 37° C., after 19 h
Protocol: The stability of 3 (isomer B) in the appropriate buffer solution (0.2 M HCl/KCl, pH=1.4) at 37° C. was evaluated by HPLC-electrospray ionization (ESI)MS for 5 days at 7-17 h intervals, and its hydrolysis rate, based on the HPLC integration changes of the 3B peak with time, was fit to a pseudo first-order exponential decay rate equation, as shown in FIGS. 2A-2B. In addition to 3B, degradation products 6, 7 and 8 were identified in the hydrolysis mixture, as depicted in Scheme 3. For instance, after 19 h, 50% of 3B was degraded giving rise to 37% of AMP-α-B and AMP-α-H (6 and 7, respectively. Both appear at the same retention time; however, MS enabled the identification of these compounds) and 13% adenosine (FIG. 2A). […]
The stability of 4 (isomer B) in the appropriate buffer solution (pH=1.4) at 37° C. was evaluated by HPLC to monitor possible dephosphorylation products. […] The solution was kept in an oil bath at 37° C. and its composition was analyzed by HPLC-MS, using a Gemini analytic column (5u C-18 110A, 150×4.60 mm) and gradient elution with Solvent System I (see Example 1) at 89:11 A:B for 15 min and then 82:18 to 74:26 A:B for 20 min at a flow rate of 1 ml/min. […] The hydrolysis rate of 4 was determined by measuring the change in the integration of the HPLC peaks of the degradation products, 6, 7 and 8, with time.

T3 sequence (P49652 whole entry): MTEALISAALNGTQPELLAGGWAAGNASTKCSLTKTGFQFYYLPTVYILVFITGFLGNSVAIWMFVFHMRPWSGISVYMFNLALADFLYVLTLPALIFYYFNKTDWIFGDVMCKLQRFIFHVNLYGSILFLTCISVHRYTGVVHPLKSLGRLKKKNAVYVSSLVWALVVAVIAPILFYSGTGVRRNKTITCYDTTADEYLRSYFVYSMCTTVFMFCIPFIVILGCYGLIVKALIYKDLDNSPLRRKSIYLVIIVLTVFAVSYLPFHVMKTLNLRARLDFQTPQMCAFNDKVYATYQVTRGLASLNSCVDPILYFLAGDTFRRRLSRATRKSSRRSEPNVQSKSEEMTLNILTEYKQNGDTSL
T2 sequence (P19111 20-506): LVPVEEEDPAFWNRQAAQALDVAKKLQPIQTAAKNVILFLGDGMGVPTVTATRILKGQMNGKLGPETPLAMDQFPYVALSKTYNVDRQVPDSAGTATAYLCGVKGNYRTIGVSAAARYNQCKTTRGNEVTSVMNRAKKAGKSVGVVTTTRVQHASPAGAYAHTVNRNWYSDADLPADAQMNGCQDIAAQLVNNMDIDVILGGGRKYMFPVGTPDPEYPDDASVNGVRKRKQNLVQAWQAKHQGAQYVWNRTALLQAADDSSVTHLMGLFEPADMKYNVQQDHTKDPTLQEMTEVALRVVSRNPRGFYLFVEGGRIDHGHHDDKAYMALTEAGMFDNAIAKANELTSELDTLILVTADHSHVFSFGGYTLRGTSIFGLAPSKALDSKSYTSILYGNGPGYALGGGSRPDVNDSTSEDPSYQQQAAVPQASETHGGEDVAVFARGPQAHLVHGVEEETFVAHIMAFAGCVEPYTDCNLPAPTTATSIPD
T1 sequence (P49651 whole entry): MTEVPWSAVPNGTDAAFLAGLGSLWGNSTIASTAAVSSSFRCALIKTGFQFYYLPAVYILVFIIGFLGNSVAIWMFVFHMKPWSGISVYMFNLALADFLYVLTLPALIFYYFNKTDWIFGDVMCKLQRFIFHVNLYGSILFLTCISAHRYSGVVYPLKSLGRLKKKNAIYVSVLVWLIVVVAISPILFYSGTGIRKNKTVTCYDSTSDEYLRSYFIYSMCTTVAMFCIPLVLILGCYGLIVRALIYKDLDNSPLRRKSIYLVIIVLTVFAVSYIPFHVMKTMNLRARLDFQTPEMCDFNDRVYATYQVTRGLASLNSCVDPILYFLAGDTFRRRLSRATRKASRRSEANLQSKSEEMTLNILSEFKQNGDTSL

CSc1nc(N)c2ncn([C@@H]3O[C@H](COP(=O)(O)OP(=O)(O)OP(=O)(O)O)[C@@H](O)[C@H]3O)c2n1 [Compound 2-MeS-ATP, 2-MeS-ATP]
EC50 [1]: 1 nM

Nc1ncnc2c1ncn2[C@@H]1O[C@H](COP(=O)(O)OP(=O)(O)O)[C@@H](O)[C@H]1O [ADP, reference compound]
half-life in human blood serum: about 2 h | t1/2 to alkaline phosphatase [2]: about 4 h

COc1ccc(Cl)cc1C(=O)NCCc1ccc(S(=O)(=O)NC(=O)NC2CCCCC2)cc1 [glibenclamide, reference compound]
glucose levels after glucose challenge relative to saline treated rats ([3]; 0.25 mg/kg per os 30 minutes prior to glucose, positive control): reduced the glucose levels

[BH3-]P(=O)(OC[C@H]1O[C@@H](n2cnc3c(N)nc(SC)nc32)[C@H](O)[C@@H]1O)OP(=O)([O-])[O-].[Na+].[Na+].[Na+] (stereo partly drawn) [Compound 19, 2MeS-adenosine-5′-O-(Pα-borano) diphosphate]
glucose levels after glucose challenge relative to saline treated rats ([3]; 2.5 mg/kg IV 10 minutes after glucose challenge, preliminary study): reduced the glucose levels; also recorded: reduces glycemia

B[P@](=O)(OC[C@H]1O[C@@H](n2cnc3c(N)ncnc32)[C@H](O)[C@@H]1O)OP(=O)(O)CP(=O)(O)O (single isomer, unassigned) [Compound 3B, Adenosine-β,γ-CH2-5′-O-(1-boranotriphosphate)]
activity at P2Y1R, in words [4]: practically inactive | activities at the P2YRs tested ([4]; P2Y1, P2Y2, P2Y4 and P2Y6 tested): insignificant activities | half-life in human blood serum [5]: 47.1 h | fraction degraded [6]: 50%
